In ChEMBL document CHEMBL4673190, “Recent developments in anticancer kinase inhibitors based on the pyrazolo[3,4-d]pyrimidine scaffold” (RSC Med Chem, 2020):

Legend:
[1] = molecular target: Vascular endothelial growth factor receptor 2 (Homo sapiens, UniProt P35968); assay: Inhibition of N-terminal GST-tagged human VEGFR2 (805 to 1356 residues) expressed in a baculovirus infected Sf9 insect cell incubated for 45 mins by Kinase-Glo max reagent-based luminescence assay
[2] = molecular target: Cyclin-dependent kinase 2/cyclin E1 (Homo sapiens, UniProt P24941); assay: Inhibition of CDK2/cyclin E (unknown origin) expressed in baculovirus infected Sf21 insect cells using histone H1 as substrate in presence of [gamma33P]ATP
[3] = system: MCF7; assay: Cytotoxicity against human MCF-7 cells incubated for 72 hrs by MTT assay; type: functional, cell-based; conditions: MCF7, 72 h
[4] = system: A549; assay: Cytotoxicity against human A549 cells incubated for 72 hrs by MTT assay; type: functional, cell-based; conditions: A549, 72 h
[5] = system: HepG2; assay: Cytotoxicity against human HepG2 cells incubated for 72 hrs by MTT assay; type: functional, cell-based; conditions: HepG2, 72 h
[6] = molecular target: T1, Tyrosine-protein kinase JAK3 (Homo sapiens, UniProt P52333); assay: Inhibition of JAK3 (unknown origin)
T1 sequence (P52333 whole entry): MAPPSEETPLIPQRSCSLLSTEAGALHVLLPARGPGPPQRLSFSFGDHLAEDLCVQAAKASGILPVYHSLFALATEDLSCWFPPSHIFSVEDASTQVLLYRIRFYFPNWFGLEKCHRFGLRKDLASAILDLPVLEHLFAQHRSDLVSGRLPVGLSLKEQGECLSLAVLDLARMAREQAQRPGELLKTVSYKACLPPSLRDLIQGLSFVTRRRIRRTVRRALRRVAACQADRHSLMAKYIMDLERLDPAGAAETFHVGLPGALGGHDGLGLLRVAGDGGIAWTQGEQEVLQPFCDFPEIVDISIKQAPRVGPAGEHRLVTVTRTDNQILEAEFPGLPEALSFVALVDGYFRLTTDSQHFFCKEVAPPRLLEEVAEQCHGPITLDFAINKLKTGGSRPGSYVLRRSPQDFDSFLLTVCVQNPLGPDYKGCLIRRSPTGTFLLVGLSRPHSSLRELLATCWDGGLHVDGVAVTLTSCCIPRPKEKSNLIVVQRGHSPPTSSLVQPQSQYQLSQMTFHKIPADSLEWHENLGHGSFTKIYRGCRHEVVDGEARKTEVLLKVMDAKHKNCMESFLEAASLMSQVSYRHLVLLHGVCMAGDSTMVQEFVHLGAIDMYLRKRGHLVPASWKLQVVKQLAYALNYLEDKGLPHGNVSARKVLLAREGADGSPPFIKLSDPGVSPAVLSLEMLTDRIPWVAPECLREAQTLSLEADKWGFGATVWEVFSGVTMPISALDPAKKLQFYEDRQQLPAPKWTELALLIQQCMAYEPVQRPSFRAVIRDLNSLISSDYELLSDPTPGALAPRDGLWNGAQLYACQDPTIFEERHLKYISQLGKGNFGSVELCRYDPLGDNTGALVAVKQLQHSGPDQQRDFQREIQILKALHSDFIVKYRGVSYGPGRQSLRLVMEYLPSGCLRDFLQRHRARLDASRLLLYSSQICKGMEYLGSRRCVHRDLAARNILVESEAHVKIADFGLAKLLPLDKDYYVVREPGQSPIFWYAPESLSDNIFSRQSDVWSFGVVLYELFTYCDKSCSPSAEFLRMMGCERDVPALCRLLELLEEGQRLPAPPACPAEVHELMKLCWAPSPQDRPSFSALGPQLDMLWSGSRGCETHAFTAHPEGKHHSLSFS

[7] = species: Homo sapiens; assay: Selectivity index, ratio of IC50 for human JAK2 expressed in baculovirus expression system to IC50 for human JAK3 expressed in baculovirus expression system
[8] = species: Homo sapiens; assay: Selectivity index, ratio of IC50 for human JAK1 expressed in baculovirus expression system to IC50 for human JAK3 expressed in baculovirus expression system

Sequence of Vascular endothelial growth factor receptor 2 (P35968 whole entry, the tested form may be a part): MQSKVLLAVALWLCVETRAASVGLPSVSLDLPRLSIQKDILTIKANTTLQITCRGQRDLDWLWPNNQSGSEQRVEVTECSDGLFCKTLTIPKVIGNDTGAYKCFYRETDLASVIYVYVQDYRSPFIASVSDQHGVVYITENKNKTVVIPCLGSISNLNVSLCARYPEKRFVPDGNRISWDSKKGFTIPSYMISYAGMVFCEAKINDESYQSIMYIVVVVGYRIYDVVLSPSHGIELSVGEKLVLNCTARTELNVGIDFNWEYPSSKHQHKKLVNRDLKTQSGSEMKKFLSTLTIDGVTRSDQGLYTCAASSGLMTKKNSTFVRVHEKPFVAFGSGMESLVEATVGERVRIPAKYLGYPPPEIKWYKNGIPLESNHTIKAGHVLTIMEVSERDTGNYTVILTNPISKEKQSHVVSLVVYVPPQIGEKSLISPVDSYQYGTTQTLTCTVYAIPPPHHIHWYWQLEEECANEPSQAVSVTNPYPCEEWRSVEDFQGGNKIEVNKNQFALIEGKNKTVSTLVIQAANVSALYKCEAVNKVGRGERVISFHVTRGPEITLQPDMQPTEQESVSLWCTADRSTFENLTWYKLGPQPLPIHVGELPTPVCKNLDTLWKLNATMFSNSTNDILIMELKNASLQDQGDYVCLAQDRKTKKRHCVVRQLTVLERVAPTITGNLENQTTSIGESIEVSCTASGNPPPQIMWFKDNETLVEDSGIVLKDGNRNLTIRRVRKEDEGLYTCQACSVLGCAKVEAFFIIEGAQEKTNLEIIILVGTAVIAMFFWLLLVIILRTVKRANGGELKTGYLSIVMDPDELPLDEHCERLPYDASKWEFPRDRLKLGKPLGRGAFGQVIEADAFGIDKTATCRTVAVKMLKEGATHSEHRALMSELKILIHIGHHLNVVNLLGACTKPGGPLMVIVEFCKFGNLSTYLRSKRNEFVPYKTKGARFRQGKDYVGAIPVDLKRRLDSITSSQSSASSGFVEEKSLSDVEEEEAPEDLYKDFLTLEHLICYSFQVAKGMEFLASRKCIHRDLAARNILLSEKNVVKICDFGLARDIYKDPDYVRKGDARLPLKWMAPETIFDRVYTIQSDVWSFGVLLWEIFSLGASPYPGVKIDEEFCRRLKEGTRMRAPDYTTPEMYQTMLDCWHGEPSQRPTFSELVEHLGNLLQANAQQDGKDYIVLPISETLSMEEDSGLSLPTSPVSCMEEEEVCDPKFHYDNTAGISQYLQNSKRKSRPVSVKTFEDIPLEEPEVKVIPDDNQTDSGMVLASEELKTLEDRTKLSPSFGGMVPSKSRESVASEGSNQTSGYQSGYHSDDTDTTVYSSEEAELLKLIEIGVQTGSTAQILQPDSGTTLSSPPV

## COc1ccc(-n2nc(C)c3c(Nc4ccc(NC(=O)Nc5ccc(Cl)c(C(F)(F)F)c5)cc4)ncnc32)cc1
[1]
  IC50: 220 nM

## O=C(Oc1nc(SCCc2ccccc2)nc2[nH]ncc12)c1cc2ccccc2o1
[2]
  IC50: 6.8 µM

## Cc1c(C(=O)Nc2ccc(Oc3ncnc4c3cnn4C)c(F)c2)nnn1-c1ccc(F)cc1
[3]
  EC50: ≤ 10 µM
[4]
  EC50: ≤ 10 µM
[5]
  EC50: ≤ 10 µM

## O=[N+]([O-])c1cccc(Nc2nc(SCCc3ccccc3)nc3[nH]ncc23)c1
[2]
  IC50: 5.1 µM

## C[C@@H]1CCN(C(=O)CC#N)C[C@@H]1N(C)c1ncnc2[nH]ncc12
[6]
  IC50: 1.6 nM

## C=CC(=O)Nc1cccc(Cn2ncc3cnc(Nc4cnn(CCOC)c4)nc32)c1
[7]
  Ratio IC50: > 376
[8]
  Ratio IC50: > 376
